In patent US5084441A, “Acetylated low density lipoproteins: a delivery system to phagocytic cells for stimulating immunologic response and host resistance” (priority 1988, dated 1992):

Tests used:
[1] = test system: thioglycolate-elicited macrophages; test: Fluorescent binding and uptake of acetyl-LDL:MTP-PE-DiI by macrophages; type: cell-based, mouse; details: 30-fold excess of competitor; 30 μg acetyl-LDL:MTP-PE-DiI; 37°
Method: The binding and uptake of acetyl-LDL:MTP-PE-DiI was carried out at 37 degrees centigrade and the fluorescence intensity of cell-associated DiI recorded. The μg acetyl-LDL:MTP-PE-DiI bound was determined by knowing the quantity of DiI associated with the complex (1.34±0.76 nmol DiI/mg acetyl-LDL protein). The data points represent an average of three separate experiments.
Insert: Uptake of 30 μg of acetyl-LDL:MTP-PE-DiI and in the presence of a 30-fold excess of acetyl-LDL (a) a 30-fold excess of LDL (b) or a 30-fold excess of liposomes (c).

[2] = test system: P815 mastocytoma target cells; test: Macrophage-mediated cytotoxicity ([3H]thymidine release) after treating thioglycolate-elicited macrophages
Method: Macrophage-mediated cytotoxicity: Cytotoxicity was determined using a [3H] thymidine release assay. Thioglycolate-elicited macrophages were plated in 96-well flat-bottom tissue culture plates (Costar, Cambridge, Mass.) at 4×10^5 and 1×10^4 macrophage per well. […] After 24 hours, the plates were washed three times and [3H] thymidine labelled P815 tumor target cells (1×10^4) were added to each well. The total assay volume was 250 μl in DMEM with 10% FCS and the plates were incubated an additional 24 hours. After incubation, the microplates were centrifuged for 2 minutes at 250×g and a 125 μl aliquot of supernatant was removed and counted by liquid […]. Total incorporation of radioactivity was determined by adding 1×10^4 cells to 2 ml of Beckman Redissolve scintillation cocktail.
The percent specific release was calculated. [formula]
All samples were plated in triplicate and the data presented as the mean ±S.D. of triplicates.

[3] = test system: thioglycolate-elicited macrophages, thymocytes and X63-Ag8.653 myeloma cells; test: Cell specificity of [125I]acetyl-LDL binding; parameters: species or system mouse
Method: Thiglycolate-elicited macrophages, thymocytes and X63-Ag8.653 myeloma cells were incubated with [^125 I] acetyl-LDL at 4 degrees centigrade in six cell tissue culture plates at […]. After 2 hours, the cells were washed five times, then lysed in 0.05% Triton X-100 and the amount of [^125 I] acetyl-LDL bound was determined.

macrophages = details: reference 41; cited from earlier work
[4] = test system: B16F10 melanoma target cells; test: Macrophage-mediated cytostasis ([3H]thymidine incorporation) after treating thioglycolate-elicited macrophages; details: for % Cytostasis: effector:target 10:1
Method: ^(2) Thioglycolate-elicited macrophages were treated with different
concentrations of the complex for 24 hours, unbound complex was washed
away and B16F10 melanoma cells were added. After 24 hours, the cultures
were pulsed with [3H]thymidine and harvested after 18 hours
(effector:target ratio, 10:1).
Macrophage-mediated Cytostasis: Cytostatic activity was determined using a (^3 H) Thymidine (New England Nuclear Corp) incorporation technique (64). […] After 24 hours, the cells were washed twice with warm DMEM and cultured in DMEM (10% FCS), with 1×10^5 B16F10 melanoma target cells for 24 hours. The cells were then pulsed for 24 hours with 1 uCi of (^3 H) thymidine. Cells were harvested using a MASH cell harvester and assayed with a liquid scintillation counter. The results were expressed as a percent inhibition of (^3 H) thymidine incorporation into the B16F10 target cells (such as % cytostasis). [formula]

Substance | competition with uptake of DiI-labeled acetyl-LDL:MTP-PE complex [1] | Percent Cytotoxicity ([2]; effector to target cell ratio 1:1, same amounts per well) [%] | Percent Cytotoxicity ([2]; effector to target cell ratio 5:1, same amounts per well) [%] | Percent Cytotoxicity ([2]; effector to target cell ratio 10:1, same amounts per well) [%] | Percent Cytotoxicity ([2]; effector to target cell ratio 20:1, same amounts per well) [%] | Percent Cytotoxicity ([2]; effector to target cell ratio 40:1, per well: complex 18.0 ug protein containing 3.6 ug MTP-PE, free MTP-PE 3.6 ug, acetyl-LDL 18.0 ug protein) [%] | binding to myeloma cell line (B-lymphocyte) and thymocytes (T-lymphocytes) [3] | rate of uptake and degradation by macrophages relative to LDL (macrophages) | % Cytostasis ([4]; acetyl-LDL 6.25 μg protein/ml (MTP-PE 0.62 μg/ml in complex, 0.0 alone), 24 hours) [%] | % Cytostasis (Complex + Excess Liposomes) ([4]; acetyl-LDL 6.25 μg protein/ml (MTP-PE 0.62 or 0.0 μg/ml) in presence of excess liposomes 1.2 mg lipid/ml) [%] | % Cytostasis ([4]; acetyl-LDL 12.5 μg protein/ml (MTP-PE 1.3 μg/ml in complex, 0.0 alone), 24 hours) [%] | % Cytostasis (Complex + Excess Liposomes) ([4]; acetyl-LDL 12.5 μg protein/ml (MTP-PE 1.3 or 0.0 μg/ml) in presence of excess liposomes 1.2 mg lipid/ml) [%] | % Cytostasis ([4]; acetyl-LDL 25 μg protein/ml (MTP-PE 2.5 μg/ml in complex, 0.0 alone), 24 hours) [%] | % Cytostasis (Complex + Excess Liposomes) ([4]; acetyl-LDL 25 μg protein/ml (MTP-PE 2.5 or 0.0 μg/ml) in presence of excess liposomes 1.2 mg lipid/ml) [%] | % Cytostasis ([4]; acetyl-LDL 50 μg protein/ml (MTP-PE 5.0 μg/ml in complex, 0.0 alone), 24 hours) [%] | % Cytostasis (Complex + Excess Liposomes) ([4]; acetyl-LDL 50 μg protein/ml (MTP-PE 5.0 or 0.0 μg/ml) in presence of excess liposomes 1.2 mg lipid/ml) [%] | % Cytostasis ([4]; acetyl-LDL 100 μg protein/ml (MTP-PE 9.9 μg/ml in complex, 0.0 for acetyl-LDL alone), macrophages treated 24 hours) [%] | % Cytostasis (Complex + Excess Liposomes) ([4]; acetyl-LDL 100 μg protein/ml (MTP-PE 9.9 or 0.0 μg/ml) in presence of excess liposomes 1.2 mg lipid/ml) [%]
LDL: native unmodified human plasma low density lipoprotein | negligible to moderate competition | – | – | – | – | – | – | – | – | – | – | – | – | – | – | – | – | –
Acetyl-LDL: human plasma LDL exhaustively acetylated with acetic anhydride at apoprotein B lysine residues; the carrier alone | effective competitive inhibitor | 0.5 ± 1 | 4.5 ± 4 | 4 ± 2 | 6 ± 2 | 3 ± 3 | only low levels of binding | approximately twenty-fold greater | ≤ 5 | ≤ 5 | < 5 | ≤ 5 | 25 ± 12 | ≤ 5 | < 5 | ≤ 5 | < 5 | ≤ 5
